Reference: PMC9014410, “Discovery of V-0219: A Small-Molecule Positive Allosteric Modulator of the Glucagon-Like Peptide-1 Receptor toward Oral Treatment for “Diabesity”” (Journal of Medicinal Chemistry, 2022)
One block for each molecule: values may come before it.

What was measured:
INS-1 β-cells = test: Insulin secretion by rat INS-1 / INS-1E insulinoma cells; assay type: cell-based; settings: INS-1E cells, 0.5 mM glucose, single representative experiment
Experimental: The incubation was done using two types of culture media, defined as low glucose (0.5–3 mM) and high glucose (15 mM). […] Incubation with compounds lasted 30 min, and then the media was collected, centrifuged at 4 °C for 2 min until assayed for insulin using commercial ELISA kit.

hGLP-1R = hGLP-1R (Homo sapiens, UniProt P43220); test: cAMP accumulation in HEK-293 cells expressing hGLP-1R (HEK-GLP-1 cells); assay type: cell-based; settings: HEK293, read-out: Potentiation of GLP-1 Emax at 10 ?M in a cAMP assay (%); 10 ?M compound (supplementary csv)
Experimental: After this time the culture medium was replaced by 20 μL fresh Opti-MEM containing 500 μM IBMX and 100 μM K579 and incubated with gentle stirring for 10 min at rt. […] Concentration-response curves were fitted to a 4-parameter logistic equation by using GraphPad Prism 2.1 software.

EndoC-βH1 cells = test: Insulin secretion by human pancreatic EndoC-βH1 cells; assay type: cell-based; settings: high glucose concentration
Experimental: Both cell lines were cultured in RPMI 1640 medium supplemented with 10% fetal calf serum as described. Cell monolayers were incubated at 37 °C in a 7.5% CO2 atmosphere. For insulin secretion studies, cells were detached, washed once with glucose-free medium and placed in 48 multiwell plates (100,000 cells per well) and kept in glucose-free medium for 1.5 h prior to incubation with drugs. The incubation was done using two types of culture media, defined as low glucose (0.5–3 mM) and high glucose (15 mM). […] Incubation with compounds lasted 30 min, and then the media was collected, centrifuged at 4 °C for 2 min until assayed for insulin using commercial ELISA kit.

hGLP-1R, sequence (P43220 24-463): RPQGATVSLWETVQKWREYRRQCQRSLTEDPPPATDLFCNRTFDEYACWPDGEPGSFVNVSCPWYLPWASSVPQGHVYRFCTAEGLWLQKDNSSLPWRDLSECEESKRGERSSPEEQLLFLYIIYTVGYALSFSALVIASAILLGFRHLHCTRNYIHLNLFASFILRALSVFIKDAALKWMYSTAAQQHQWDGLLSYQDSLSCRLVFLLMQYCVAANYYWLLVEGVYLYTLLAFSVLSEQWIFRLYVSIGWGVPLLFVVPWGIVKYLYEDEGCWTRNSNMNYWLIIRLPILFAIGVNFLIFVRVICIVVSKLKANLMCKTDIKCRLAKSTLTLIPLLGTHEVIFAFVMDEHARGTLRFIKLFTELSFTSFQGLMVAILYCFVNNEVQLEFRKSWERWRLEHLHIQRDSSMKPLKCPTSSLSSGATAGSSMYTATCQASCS

melting point: 187 to 188 °C
SMILES: Cl.NC(=O)C1CCN(Cc2nc(-c3ccc(C(F)(F)F)cc3)no2)CC1 [compound 7, 1-({3-[4-(Trifluoromethyl)phenyl]-1,2,4-oxadiazol-5-yl}methyl)piperidine-4-carboxamide]

Emax (hGLP-1R): < 30%
SMILES: O=C(NS(=O)(=O)c1ccccc1Cl)C1CCN(Cc2nc(-c3ccc(C(F)(F)F)cc3)no2)CC1 [S44]

Emax (hGLP-1R): < 30%
SMILES: Clc1ccc(-c2noc(CN3CCCC(CN4CCOCC4)C3)n2)cc1 (centres unmarked) [S81]

Emax (hGLP-1R): < 30%
SMILES: O=S(=O)(NCC1CCN(Cc2nc(-c3ccc(C(F)(F)F)cc3)no2)CC1)c1cccc(F)c1 [S31]

Continued, molecule first:

SMILES: CC[C@H](C)[C@H](NC(=O)[C@H](Cc1ccccc1)NC(=O)[C@H](CCC(=O)O)NC(=O)[C@H](CCCCN)NC(=O)[C@H](C)NC(=O)[C@H](C)NC(=O)[C@H](CCC(N)=O)NC(=O)CNC(=O)[C@H](CCC(=O)O)NC(=O)[C@H](CC(C)C)NC(=O)[C@H](Cc1ccc(O)cc1)NC(=O)[C@H](CO)NC(=O)[C@H](CO)NC(=O)[C@@H](NC(=O)[C@H](CC(=O)O)NC(=O)[C@H](CO)NC(=O)[C@@H](NC(=O)[C@H](Cc1ccccc1)NC(=O)[C@@H](NC(=O)CNC(=O)[C@H](CCC(=O)O)NC(=O)[C@H](C)NC(=O)[C@@H](N)Cc1c[nH]cn1)[C@@H](C)O)[C@@H](C)O)C(C)C)C(=O)N[C@@H](C)C(=O)N[C@@H](Cc1c[nH]c2ccccc12)C(=O)N[C@@H](CC(C)C)C(=O)N[C@H](C(=O)N[C@@H](CCCCN)C(=O)NCC(=O)N[C@@H](CCCNC(=N)N)C(N)=O)C(C)C [GLP-1, GLP-1(7-36)-NH2, reference compound]
Insulin secreted (INS-1 β-cells; 0.1 nM test substance): 25 ng/mL
Insulin secreted (INS-1 β-cells; 1 nM test substance): 28 ng/mL
Insulin secreted (INS-1 β-cells; 10 nM test substance): 34 ng/mL
Insulin secreted (INS-1 β-cells; 100 nM test substance): 32 ng/mL

SMILES: FC(F)(F)c1ccc(-c2noc(CN3CCC[C@H](CN4CCOCC4)C3)n2)cc1 [(R)-9, (−)-4-{[(3R)-1-({3-[4-(Trifluoromethyl)phenyl]-1,2,4-oxadiazol-5-yl}methyl)piperidin-3-yl]methyl}morpholine]
Insulin secreted (INS-1 β-cells; 0.1 nM test substance): 19 ng/mL
Insulin secreted (INS-1 β-cells; 1 nM test substance): 31 ng/mL
Insulin secreted (INS-1 β-cells; 10 nM test substance): 39 ng/mL
potentiation of insulin secretion stimulated by GLP-1 (in words) (EndoC-βH1 cells): similarly potentiate insulin secretion stimulated by GLP-1

SMILES: O=S(=O)(Cc1ccccc1)NC1CCN(Cc2nc(-c3ccc(C(F)(F)F)cc3)no2)CC1 [S3]
Emax (hGLP-1R): < 30%

SMILES: N#Cc1ccccc1S(=O)(=O)NC1CCN(Cc2nc(-c3ccc(C(F)(F)F)cc3)no2)CC1 [S7]
Emax (hGLP-1R): < 30%
